Molecules are shown by their SMILES.

Test in all cases: Kinobeads competition binding, HeLa Placenta lysate mix
Holding throughout (parameters): endogenous in cells
What all share (settings): 10 μM free compound

Assay [1] addresses T1, TAO3 (Homo sapiens, UniProt Q9H2K8).
T1 sequence (Q9H2K8 1-898): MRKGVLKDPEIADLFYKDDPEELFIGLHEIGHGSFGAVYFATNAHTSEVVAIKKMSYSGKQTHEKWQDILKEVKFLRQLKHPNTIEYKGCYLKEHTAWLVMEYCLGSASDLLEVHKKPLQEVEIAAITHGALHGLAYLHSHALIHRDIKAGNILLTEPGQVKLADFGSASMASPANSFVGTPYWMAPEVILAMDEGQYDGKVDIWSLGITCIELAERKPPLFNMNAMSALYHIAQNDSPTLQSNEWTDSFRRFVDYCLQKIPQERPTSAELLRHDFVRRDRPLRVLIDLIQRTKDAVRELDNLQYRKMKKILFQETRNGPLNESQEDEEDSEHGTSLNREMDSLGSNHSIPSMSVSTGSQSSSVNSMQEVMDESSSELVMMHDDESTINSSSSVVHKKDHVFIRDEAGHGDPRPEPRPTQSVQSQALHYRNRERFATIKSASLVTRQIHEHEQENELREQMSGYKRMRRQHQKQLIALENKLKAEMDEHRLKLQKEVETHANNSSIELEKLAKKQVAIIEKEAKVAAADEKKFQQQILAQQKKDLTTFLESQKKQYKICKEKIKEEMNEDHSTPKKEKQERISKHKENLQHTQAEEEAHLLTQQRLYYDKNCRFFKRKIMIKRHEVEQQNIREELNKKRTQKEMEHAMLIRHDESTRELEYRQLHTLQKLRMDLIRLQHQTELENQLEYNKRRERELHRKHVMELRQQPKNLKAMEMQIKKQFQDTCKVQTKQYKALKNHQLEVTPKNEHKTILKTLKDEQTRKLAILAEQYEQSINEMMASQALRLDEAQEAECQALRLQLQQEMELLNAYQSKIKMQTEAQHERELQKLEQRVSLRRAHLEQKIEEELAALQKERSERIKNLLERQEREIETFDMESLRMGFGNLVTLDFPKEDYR
On the procedure:
(§1) To one aliquot of cell lysate 10 μM of the free compound (FIG. 3, CZC31326) was added and allowed to bind to proteins in the lysate. Then the affinity matrix with the immobilized compound was added to capture proteins that were not interacting with the previously added free compound. Beads were separated from the lysate and bead bound proteins were eluted in SDS sample buffer and subsequently separated by SDS-Polyacrylamide gel electrophoresis (FIG. 10). Suitable gel bands were cut out and subjected to in-gel proteolytic digestion with trypsin. The second lysate aliquot was processed identically, however no free compound was added (DMSO solvent control). Peptides originating from samples 1 and 2 were labeled with iTRAQ reagents (iTRAQ 114 and iTRAQ 117) and the combined samples were analyzed with a nano-flow liquid chromatography system coupled online to a tandem mass spectrometer (LC-MS/MS) experiment followed by iTRAQ reporter ion quantification in the MS/MS spectra as described in Example 2.

Assay [2] has as its target BCR (Homo sapiens, UniProt P11274). How it is done:
as §1

Assay [3] has as its target CaMK2g (Homo sapiens, UniProt Q13555). On the procedure:
as §1

Assay [4] deals with CDK5 (Homo sapiens, UniProt Q00535). How it is done: as §1
The target in assay [5] is PAK4 (Homo sapiens, UniProt O96013). How it is done: as §1
In assay [6] the target is MARK2 (Homo sapiens, UniProt Q7KZI7). On the procedure:
as §1

Assay [7] deals with RIPK2 (Homo sapiens, UniProt O43353). On the procedure:
as §1

Assay [8] has as its target T2, IKKe (Homo sapiens, UniProt Q14164).
T2 sequence (Q14164 1-716): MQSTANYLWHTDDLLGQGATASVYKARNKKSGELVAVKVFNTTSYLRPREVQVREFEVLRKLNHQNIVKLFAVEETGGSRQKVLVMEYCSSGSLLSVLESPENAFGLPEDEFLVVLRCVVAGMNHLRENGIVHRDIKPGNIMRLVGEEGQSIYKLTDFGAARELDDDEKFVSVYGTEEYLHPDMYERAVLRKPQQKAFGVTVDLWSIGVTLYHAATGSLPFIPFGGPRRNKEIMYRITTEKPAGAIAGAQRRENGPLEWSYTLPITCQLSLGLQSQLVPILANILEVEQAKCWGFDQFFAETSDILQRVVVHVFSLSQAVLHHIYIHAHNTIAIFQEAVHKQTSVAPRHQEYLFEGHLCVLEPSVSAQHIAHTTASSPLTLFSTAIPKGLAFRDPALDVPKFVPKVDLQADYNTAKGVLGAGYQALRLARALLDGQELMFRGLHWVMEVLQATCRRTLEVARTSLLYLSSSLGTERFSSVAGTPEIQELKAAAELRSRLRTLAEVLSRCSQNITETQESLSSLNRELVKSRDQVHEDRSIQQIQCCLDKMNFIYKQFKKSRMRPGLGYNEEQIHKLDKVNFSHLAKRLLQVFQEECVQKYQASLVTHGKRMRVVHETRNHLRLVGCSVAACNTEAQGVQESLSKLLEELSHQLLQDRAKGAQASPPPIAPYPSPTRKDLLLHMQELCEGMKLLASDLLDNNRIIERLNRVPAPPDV
On the procedure:
as §1

The target in assay [9] is IRAK3 (Homo sapiens, UniProt Q9Y616). On the procedure:
as §1

CDK5, sequence (Q00535 whole entry): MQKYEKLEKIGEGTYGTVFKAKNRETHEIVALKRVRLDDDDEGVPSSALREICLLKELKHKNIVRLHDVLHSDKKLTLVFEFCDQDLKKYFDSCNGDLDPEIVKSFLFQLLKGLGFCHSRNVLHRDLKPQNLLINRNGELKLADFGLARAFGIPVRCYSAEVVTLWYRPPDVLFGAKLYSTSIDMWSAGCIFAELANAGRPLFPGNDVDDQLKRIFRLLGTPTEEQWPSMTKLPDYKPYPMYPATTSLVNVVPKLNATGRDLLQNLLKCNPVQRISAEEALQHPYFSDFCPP
CaMK2g, sequence (Q13555 whole entry): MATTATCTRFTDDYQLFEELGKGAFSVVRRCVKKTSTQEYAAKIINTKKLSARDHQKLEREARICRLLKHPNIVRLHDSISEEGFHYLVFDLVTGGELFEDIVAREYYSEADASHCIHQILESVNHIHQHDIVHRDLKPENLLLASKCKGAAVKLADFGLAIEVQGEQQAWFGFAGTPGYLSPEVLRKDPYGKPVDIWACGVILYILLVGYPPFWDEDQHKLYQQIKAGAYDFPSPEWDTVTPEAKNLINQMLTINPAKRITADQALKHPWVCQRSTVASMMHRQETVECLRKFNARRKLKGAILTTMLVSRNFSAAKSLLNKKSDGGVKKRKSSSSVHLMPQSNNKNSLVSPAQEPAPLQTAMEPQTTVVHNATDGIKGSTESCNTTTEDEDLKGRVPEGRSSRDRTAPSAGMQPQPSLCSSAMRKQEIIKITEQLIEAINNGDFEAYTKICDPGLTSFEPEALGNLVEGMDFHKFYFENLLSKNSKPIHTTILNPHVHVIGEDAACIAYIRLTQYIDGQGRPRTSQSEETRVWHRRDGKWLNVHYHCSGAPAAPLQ
IRAK3, sequence (Q9Y616 whole entry): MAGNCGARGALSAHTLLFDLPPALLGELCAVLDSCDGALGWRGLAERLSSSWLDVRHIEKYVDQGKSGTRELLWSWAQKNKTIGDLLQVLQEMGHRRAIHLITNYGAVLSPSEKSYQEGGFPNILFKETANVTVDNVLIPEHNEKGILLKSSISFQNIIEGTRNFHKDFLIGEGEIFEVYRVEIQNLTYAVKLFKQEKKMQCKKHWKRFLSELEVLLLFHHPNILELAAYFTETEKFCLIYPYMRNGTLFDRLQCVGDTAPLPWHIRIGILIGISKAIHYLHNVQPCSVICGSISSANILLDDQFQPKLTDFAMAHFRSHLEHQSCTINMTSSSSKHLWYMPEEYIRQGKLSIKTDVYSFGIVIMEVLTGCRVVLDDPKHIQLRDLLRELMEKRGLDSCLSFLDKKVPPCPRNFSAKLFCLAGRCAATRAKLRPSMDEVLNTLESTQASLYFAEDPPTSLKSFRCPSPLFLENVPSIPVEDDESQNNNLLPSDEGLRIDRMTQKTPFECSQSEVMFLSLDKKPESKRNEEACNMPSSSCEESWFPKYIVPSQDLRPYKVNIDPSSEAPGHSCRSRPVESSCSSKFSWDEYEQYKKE
RIPK2, sequence (O43353 whole entry): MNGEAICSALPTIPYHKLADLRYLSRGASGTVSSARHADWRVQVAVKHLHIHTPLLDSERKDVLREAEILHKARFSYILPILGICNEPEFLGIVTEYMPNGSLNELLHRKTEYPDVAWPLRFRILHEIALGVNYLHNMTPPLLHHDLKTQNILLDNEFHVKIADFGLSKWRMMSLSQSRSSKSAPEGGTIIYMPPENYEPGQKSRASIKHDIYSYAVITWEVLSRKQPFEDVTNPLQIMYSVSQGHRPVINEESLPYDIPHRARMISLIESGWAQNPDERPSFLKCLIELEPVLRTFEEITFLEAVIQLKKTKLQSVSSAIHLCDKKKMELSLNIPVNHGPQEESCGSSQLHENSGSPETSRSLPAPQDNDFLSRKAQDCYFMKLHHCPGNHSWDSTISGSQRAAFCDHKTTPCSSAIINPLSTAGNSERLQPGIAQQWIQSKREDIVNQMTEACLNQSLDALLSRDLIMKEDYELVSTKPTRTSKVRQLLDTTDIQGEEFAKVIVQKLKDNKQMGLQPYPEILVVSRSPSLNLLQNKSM
MARK2, sequence (Q7KZI7 whole entry): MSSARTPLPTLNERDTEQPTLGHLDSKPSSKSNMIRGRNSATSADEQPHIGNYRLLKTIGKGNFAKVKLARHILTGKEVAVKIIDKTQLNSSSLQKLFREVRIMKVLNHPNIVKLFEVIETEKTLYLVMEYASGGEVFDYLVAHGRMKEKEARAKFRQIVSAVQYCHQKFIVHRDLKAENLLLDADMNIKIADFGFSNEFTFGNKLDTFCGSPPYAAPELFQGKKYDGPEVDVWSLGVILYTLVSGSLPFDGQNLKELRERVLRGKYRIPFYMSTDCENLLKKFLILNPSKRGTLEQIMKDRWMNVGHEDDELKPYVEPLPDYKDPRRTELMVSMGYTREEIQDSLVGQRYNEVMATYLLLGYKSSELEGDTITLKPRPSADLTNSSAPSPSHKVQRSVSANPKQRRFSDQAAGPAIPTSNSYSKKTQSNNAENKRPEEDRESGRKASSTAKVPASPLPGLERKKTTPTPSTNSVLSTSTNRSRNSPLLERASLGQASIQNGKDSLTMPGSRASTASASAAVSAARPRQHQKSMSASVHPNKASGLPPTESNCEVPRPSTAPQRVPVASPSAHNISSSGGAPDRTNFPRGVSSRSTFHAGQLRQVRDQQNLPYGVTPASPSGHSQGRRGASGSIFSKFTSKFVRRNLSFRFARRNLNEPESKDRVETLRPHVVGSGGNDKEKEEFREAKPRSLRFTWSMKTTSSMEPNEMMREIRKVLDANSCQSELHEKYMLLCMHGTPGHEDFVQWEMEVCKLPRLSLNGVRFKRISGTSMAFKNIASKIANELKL
PAK4, sequence (O96013 whole entry): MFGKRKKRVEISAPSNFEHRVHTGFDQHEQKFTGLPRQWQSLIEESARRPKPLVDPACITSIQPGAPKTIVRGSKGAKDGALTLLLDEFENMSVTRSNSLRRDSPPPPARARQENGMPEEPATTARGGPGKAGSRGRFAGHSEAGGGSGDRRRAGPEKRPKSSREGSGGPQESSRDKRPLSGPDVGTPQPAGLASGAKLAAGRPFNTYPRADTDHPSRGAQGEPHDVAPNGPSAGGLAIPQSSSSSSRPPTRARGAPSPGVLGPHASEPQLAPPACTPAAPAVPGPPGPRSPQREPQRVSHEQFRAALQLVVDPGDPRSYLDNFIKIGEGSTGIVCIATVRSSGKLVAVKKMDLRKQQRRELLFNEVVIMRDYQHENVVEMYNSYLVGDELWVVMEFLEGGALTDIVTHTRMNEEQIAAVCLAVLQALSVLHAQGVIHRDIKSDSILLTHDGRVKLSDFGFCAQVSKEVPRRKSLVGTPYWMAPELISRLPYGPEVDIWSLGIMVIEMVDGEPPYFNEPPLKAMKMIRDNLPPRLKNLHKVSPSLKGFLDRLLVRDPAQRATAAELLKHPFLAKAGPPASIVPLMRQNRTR
BCR, sequence (P11274 whole entry): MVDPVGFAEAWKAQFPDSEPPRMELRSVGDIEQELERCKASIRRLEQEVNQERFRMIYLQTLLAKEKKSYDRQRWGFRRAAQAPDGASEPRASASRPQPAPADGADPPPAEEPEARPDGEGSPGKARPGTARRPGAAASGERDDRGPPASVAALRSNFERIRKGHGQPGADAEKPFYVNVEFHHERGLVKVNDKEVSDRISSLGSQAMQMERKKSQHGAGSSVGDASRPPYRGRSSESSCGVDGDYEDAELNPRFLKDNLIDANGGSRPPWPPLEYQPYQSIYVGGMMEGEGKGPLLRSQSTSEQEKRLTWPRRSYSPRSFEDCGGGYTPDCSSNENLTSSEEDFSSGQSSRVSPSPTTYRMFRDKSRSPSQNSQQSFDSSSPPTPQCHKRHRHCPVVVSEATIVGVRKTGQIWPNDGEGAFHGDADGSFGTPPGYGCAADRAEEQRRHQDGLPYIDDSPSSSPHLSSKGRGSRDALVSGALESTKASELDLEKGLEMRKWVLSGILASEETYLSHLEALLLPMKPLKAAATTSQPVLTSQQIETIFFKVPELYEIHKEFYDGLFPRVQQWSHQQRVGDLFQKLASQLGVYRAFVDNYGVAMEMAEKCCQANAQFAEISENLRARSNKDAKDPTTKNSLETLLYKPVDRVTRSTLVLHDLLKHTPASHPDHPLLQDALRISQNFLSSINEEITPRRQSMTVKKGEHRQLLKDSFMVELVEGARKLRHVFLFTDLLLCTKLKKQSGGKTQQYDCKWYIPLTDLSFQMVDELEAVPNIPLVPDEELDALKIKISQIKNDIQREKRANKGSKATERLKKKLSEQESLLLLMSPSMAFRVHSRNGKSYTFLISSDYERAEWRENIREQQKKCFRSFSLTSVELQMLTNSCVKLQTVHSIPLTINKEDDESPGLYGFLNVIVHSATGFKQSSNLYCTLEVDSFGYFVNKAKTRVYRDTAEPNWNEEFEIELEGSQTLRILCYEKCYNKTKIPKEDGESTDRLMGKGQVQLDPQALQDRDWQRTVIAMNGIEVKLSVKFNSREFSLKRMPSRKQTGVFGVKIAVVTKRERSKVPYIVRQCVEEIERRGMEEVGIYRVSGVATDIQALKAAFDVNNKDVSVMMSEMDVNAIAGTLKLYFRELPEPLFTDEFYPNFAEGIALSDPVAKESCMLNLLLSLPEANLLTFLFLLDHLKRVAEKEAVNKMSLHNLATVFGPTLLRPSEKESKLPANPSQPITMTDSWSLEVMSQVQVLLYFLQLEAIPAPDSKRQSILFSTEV

Consider `CS(=O)(=O)Nc1ccccc1Nc1nc(Nc2cccc(OCCN)c2)ncc1Cl` [CZC31326, N-(2-(2-(3-(2-aminoethoxy)phenylamino)-5-chloropyrimidin-4-ylamino)phenyl)methanesulfonamide], for which the inhibition – broadly, the drop in the measured response relative to a control, in per cent – at 10 µM in [1] came to 94.4%; in assay [2], 90.2%; in assay [3] it was 84.8%; in [4], 92.6%; in assay [5] it was 94.2%; in assay [6], 93.7%. The inhibition at 10 µM came to 92.2% in [7], 89.7% in assay [8] and 92% in [9].

(Values after patent US20120270237A9, “METHODS FOR THE IDENTIFICATION OF KINASE INTERACTING MOLECULES AND FOR THE PURIFICATION OF KINASE PROTEINS” (Cellzone AG, priority 2009, published 2012).)
